The values below are quoted from earlier work in patent US9512402B2, “Compositions for the preparation of mature dendritic cells” (Helmholtz Zentrum Munchen Deutsches Forschungszentrum fur …, priority 2006, dated 2016).

In this data set the test system is mature DCs. Particulars: DCs matured only with IFNα; Frankenberger 2005.

Consider IFNα, for which the “EGFP protein expression following RNA transfer” value is listed as “failed to express EGFP protein”.
